According to paper PMC6017545, “Design, Synthesis, and Biological Evaluation of Novel 1,3,4-Thiadiazole Derivatives as Potential Antitumor Agents against Chronic Myelogenous Leukemia: Striking Effect of Nitrothiazole Moiety” (Molecules : A Journal of Synthetic Chemistry and Natural …, 2017):

Legend:
[1] = system: K562 chronic myelogenous leukemia cell line; assay: MTT cytotoxicity assay, K562 cells; type: cell-based, human; settings: for IC50: Homo sapiens, K562, 48 h of incubation, mean ± SD, three independent experiments
Protocol: (§1) HeLa human cervical carcinoma cells were incubated in Dulbecco’s modified Eagle’s medium (DMEM) (Wako Pure Chemical Industries, Osaka, Japan) supplemented with 10% fetal bovine serum (FBS) (Equitech-Bio, Kerrville, TX, USA). […] Growing cells were plated at 2 × 10^4 cells/mL into 24-well microtiter tissue culture plates (Iwaki brand Asahi Glass Co., Chiba, Japan) and incubated for 48 h before the addition of the drugs (the optimal cell number for cytotoxicity assays was determined in preliminary experiments). […] The concentration of DMSO in the final culture medium was 1%.
(§2) The level of cellular reduction of 3-(4,5-dimethylthiazol-2-yl)-2,5-diphenyltetrazolium bromide (MTT) (Dojindo Molecular Technologies, Kumamoto, Japan) was quantified as previously described in the literature with small modifications [46]. The tested compounds were incubated with cells in various concentrations for 48 h. […] The solution was removed, and the formazan crystals were solubilized by an addition of 100 μL DMSO. The absorbance of the converted dye in the living cells was measured at a wavelength of 550 nm using a microplate spectrophotometer Infinitive M1000 (Tecan, Groding, Austria). Cell viability was calculated as a percentage of the viable control cells.

MT-2 cell line = assay: MTT cytotoxicity assay, MT-2 cells; type: cell-based; settings: Homo sapiens, MT2, 48 h of incubation, mean ± SD, three independent experiments
Protocol: as §1, §2

Jurkat cell line = assay: MTT cytotoxicity assay, Jurkat cells; type: cell-based; settings: Homo sapiens, 48 h of incubation, mean ± SD, three independent experiments
Protocol: as §1, §2

[2] = system: HeLa human cervical carcinoma cell line; assay: MTT cytotoxicity assay, HeLa cells; type: cell-based; settings: for IC50: Homo sapiens, HeLa, 48 h of incubation, mean ± SD, three independent experiments; for activity against the HeLa cell line (in words): 48 h
Protocol: as §1, §2

HeLa cells = assay: Apoptotic/necrotic/healthy cells detection assay (annexin V/ethidium homodimer III staining); type: cell-based, human; settings: IC50 concentration; for apoptotic activity: 3 h, approximately 100 stained cells counted; for apoptotic and necrotic effects: 24 h and 48 h, data not shown
Protocol: Then, detection of apoptotic/necrotic/healthy cells was performed according to the manufacturer’s instructions (PromoKine, Heidelberg, Germany). After the cells were washed twice with 1× binding buffer, a staining solution containing 50 μL of 1 × binding buffer, 2 μL of FITC-Annexin V solution, 2 μL of ethidium homodimer III solution, and 2 μL of Hoechst 33,342 solution was added and the cells were incubated for 15 min at room temperature (RT), protected from light. The cells were washed with 1 × binding buffer, analyzed by the all-in-one fluorescence microscope Biorevo Fluorescence BZ-9000 (Keyence, Osaka, Japan), and counted as described previously in [47].

[3] = system: peripheral blood mononuclear cells (PBMC); assay: MTT cytotoxicity assay, PBMC; type: cell-based
Protocol: as §1, §2

ABL1 = biological target: T1, ABL1 (Homo sapiens, UniProt P00519); assay: Kinase inhibition assay (TK-2 profiling, ADP-Glo), ABL1; type: biochemical; settings: 1 h at room temperature
T1 construct: purchased Promega Corporation
T1 sequence (P00519 whole entry): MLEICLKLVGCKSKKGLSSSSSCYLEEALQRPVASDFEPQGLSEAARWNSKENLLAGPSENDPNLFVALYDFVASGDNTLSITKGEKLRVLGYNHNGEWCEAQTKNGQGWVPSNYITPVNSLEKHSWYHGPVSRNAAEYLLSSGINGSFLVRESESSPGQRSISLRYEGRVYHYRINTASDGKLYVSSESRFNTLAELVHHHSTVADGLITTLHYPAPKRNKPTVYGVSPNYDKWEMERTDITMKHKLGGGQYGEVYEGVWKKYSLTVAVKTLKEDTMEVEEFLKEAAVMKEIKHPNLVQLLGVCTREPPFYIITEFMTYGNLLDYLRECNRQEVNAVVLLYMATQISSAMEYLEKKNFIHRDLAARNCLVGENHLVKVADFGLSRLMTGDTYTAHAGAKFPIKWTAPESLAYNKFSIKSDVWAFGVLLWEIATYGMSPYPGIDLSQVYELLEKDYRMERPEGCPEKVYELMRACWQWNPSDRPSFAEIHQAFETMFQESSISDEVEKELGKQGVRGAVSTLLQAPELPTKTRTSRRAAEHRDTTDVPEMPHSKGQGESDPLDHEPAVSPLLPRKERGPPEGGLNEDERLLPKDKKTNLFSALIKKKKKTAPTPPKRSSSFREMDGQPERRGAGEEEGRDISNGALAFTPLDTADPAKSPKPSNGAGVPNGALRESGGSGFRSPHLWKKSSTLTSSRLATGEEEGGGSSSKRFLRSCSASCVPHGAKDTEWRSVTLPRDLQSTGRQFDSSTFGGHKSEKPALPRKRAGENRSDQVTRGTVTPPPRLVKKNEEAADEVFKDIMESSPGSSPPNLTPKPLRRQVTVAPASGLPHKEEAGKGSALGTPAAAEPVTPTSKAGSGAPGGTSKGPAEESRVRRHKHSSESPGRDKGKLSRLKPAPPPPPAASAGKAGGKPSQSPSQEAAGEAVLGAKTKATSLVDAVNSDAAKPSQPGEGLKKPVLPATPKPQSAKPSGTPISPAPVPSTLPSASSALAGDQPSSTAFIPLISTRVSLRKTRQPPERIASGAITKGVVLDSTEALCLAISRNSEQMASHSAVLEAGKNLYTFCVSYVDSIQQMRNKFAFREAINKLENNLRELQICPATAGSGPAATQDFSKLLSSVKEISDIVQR
Protocol: (§3) Kinase selectivity profiling system (TK-2) assays were performed according to the manufacturer’s instructions (Promega Corporation, Madison, WI, USA). Multipoint dose-response experiments were performed using eight kinases, namely: ABL1, BRK, BTK, CSK, FYN A, LCK, LYN B, and SRC. […] After 1 h of incubation at room temperature, kinase activity was quantified using the ADP-Glo Kinase Assay (Promega Corporation). Kinase inhibition was quantified using an Infinitive M1000 luminescence microplate spectrophotometer (Tecan, Groding, Austria).

LCK = biological target: T2, LCK (Homo sapiens, UniProt P06239); assay: Kinase inhibition assay (TK-2 profiling, ADP-Glo), LCK; type: biochemical
T2 construct: purchased Promega Corporation
T2 sequence (P06239 whole entry): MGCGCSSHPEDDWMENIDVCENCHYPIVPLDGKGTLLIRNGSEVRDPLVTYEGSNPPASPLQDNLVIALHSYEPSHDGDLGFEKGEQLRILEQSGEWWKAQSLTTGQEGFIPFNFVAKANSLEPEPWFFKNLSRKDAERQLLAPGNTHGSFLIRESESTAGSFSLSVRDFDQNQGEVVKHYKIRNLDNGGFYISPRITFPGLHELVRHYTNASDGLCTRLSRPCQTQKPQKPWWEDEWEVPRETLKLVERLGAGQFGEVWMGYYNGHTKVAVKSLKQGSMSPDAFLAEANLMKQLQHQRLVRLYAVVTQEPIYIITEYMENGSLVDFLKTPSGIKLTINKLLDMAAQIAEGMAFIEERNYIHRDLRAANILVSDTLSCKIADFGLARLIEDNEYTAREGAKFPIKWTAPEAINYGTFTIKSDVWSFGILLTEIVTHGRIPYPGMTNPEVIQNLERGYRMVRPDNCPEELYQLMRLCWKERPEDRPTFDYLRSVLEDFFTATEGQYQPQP
Protocol: as §3

SRC = biological target: T3, SRC (Homo sapiens, UniProt P12931); assay: Kinase inhibition assay (TK-2 profiling, ADP-Glo), SRC; type: biochemical
T3 construct: purchased Promega Corporation
T3 sequence (P12931 whole entry): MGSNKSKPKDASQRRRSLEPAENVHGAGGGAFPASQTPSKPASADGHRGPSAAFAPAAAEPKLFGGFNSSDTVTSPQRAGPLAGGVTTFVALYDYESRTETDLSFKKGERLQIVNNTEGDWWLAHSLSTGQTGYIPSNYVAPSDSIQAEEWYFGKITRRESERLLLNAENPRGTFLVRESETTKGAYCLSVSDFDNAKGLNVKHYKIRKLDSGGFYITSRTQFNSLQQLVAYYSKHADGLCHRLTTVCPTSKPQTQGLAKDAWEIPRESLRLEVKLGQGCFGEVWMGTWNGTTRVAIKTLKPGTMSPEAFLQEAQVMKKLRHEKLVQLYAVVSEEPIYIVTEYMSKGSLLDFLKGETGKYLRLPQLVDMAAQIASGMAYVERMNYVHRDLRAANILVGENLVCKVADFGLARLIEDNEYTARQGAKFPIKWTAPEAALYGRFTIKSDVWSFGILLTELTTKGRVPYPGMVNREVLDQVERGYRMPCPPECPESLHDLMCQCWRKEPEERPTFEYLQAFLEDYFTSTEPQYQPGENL
Protocol: as §3

BRK = BRK (Homo sapiens, UniProt Q13882); assay: Kinase inhibition assay (TK-2 profiling, ADP-Glo), BRK
Sequence of BRK (Q13882 whole entry): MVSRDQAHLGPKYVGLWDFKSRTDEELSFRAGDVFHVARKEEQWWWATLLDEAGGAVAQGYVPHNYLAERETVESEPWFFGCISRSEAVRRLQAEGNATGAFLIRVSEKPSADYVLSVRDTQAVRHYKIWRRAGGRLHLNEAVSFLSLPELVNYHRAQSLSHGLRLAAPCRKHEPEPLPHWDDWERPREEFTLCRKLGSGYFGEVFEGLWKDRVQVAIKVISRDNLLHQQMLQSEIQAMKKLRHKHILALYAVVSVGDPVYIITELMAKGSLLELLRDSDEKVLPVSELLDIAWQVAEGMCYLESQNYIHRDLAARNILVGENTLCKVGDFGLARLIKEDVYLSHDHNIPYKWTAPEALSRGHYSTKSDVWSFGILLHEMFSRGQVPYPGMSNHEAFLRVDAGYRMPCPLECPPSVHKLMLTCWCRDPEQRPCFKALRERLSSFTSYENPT
Protocol: as §3

BTK = BTK (Homo sapiens, UniProt Q06187); assay: Kinase inhibition assay (TK-2 profiling, ADP-Glo), BTK
Sequence of BTK (Q06187 whole entry): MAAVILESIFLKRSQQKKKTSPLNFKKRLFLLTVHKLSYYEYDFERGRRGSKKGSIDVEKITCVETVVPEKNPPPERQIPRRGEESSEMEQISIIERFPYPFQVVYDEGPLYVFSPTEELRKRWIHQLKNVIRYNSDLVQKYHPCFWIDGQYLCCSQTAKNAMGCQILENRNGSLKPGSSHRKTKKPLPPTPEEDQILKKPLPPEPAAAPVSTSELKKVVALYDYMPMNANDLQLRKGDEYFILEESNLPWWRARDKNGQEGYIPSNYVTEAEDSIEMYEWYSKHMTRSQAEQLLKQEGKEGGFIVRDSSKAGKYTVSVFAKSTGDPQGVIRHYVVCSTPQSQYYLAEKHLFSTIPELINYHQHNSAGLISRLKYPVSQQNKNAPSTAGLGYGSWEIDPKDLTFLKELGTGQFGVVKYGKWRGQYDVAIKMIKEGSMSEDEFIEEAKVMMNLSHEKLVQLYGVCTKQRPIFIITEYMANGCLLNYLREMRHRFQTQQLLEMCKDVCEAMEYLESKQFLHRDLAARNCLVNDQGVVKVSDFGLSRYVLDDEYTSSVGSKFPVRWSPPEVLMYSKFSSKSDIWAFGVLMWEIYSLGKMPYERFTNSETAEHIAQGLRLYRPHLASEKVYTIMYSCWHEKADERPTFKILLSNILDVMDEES
Protocol: as §3

CSK = CSK (Homo sapiens, UniProt P41240); assay: Kinase inhibition assay (TK-2 profiling, ADP-Glo), CSK
Protocol: as §3

FYN A = FYN A (Homo sapiens, UniProt P06241); assay: Kinase inhibition assay (TK-2 profiling, ADP-Glo), FYN A
Sequence of FYN A (P06241 whole entry): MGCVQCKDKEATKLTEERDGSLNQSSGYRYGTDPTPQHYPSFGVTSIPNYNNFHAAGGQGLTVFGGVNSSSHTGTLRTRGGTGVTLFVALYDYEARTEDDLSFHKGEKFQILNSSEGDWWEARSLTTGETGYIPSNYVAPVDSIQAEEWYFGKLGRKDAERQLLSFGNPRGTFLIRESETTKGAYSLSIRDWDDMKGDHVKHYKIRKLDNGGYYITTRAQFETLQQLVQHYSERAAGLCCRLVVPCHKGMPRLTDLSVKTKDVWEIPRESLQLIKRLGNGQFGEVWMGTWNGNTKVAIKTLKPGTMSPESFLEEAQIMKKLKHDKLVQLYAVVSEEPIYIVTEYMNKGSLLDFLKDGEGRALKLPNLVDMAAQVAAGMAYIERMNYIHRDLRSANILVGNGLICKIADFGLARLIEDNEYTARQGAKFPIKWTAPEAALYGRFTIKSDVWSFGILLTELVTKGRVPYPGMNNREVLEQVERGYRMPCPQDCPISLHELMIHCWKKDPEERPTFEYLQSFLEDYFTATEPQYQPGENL
Protocol: as §3

LYN B = LYN B (Homo sapiens, UniProt P07948); assay: Kinase inhibition assay (TK-2 profiling, ADP-Glo), LYN B
Sequence of LYN B (P07948 1-491 isoform P07948-2): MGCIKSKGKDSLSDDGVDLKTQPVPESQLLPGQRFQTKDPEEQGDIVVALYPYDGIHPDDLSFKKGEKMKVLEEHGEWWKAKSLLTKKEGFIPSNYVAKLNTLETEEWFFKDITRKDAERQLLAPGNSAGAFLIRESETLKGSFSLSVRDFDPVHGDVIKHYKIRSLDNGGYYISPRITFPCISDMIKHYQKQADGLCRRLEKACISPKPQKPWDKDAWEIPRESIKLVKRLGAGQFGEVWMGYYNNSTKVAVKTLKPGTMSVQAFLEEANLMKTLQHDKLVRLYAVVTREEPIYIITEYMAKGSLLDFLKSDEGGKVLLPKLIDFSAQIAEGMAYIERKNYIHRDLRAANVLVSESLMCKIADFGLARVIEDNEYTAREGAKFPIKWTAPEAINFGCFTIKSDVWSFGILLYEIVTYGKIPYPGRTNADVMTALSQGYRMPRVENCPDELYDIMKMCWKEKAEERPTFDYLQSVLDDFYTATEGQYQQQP
Protocol: as §3

[4] = ADP-Glo, 1 h at room temperature

| melting point | SMILES | IC50 [1] | IC50 (MT-2 cell line) | IC50 (Jurkat cell line) | IC50 [2] | also measured |
| --- | --- | --- | --- | --- | --- | --- |
|  | CCOC(=O)Cc1csc(NC(=O)CSc2nnc(Nc3ccc(C(F)(F)F)cc3)s2)n1 [Compound 3, Ethyl 2-(2-(2-((5-((4-(trifluoromethyl)phenyl)amino)-1,3,4-thiadiazol-2-yl)thio)acetamido)thiazol-4-yl)acetate] | > 300 µM | > 300 µM | 129 ± 6 µM | 14.1 ± 5 µM |  |
|  | O=C(CSc1nnc(Nc2ccc(C(F)(F)F)cc2)s1)Nc1nc2ccccc2s1 [Compound 4, N-(Benzothiazol-2-yl)-2-((5-((4-(trifluoromethyl)phenyl)amino)-1,3,4-thiadiazol-2-yl)thio)acetamide] | > 300 µM | 267 ± 14 µM | > 300 µM | 32.9 ± 2 µM |  |
|  | Cc1ccc(NC(=O)c2ccc(CN3CCN(C)CC3)cc2)cc1Nc1nccc(-c2cccnc2)n1 [Imatinib, imatinib, reference compound] |  |  |  |  | apoptotic activity (HeLa cells): 78%; apoptotic and necrotic effects (HeLa cells): induced late apoptosis or necrosis |
|  | CCOc1ccc2nc(NC(=O)CSc3nnc(Nc4ccc(C(F)(F)F)cc4)s3)sc2c1 [Compound 9, N-(6-Ethoxybenzothiazol-2-yl)-2-((5-((4-(trifluoromethyl)phenyl)amino)-1,3,4-thiadiazol-2-yl)thio)acetamide] | > 300 µM | > 300 µM | 96.1 ± 7 µM | 69.4 ± 7 µM | activity against the HeLa cell line (in words) [2]: no significant activity |
| 275 to 276.5 °C | O=C(CSc1nnc(Nc2ccc(C(F)(F)F)cc2)s1)Nc1ncc([N+](=O)[O-])s1 [Compound 2, N-(5-Nitrothiazol-2-yl)-2-((5-((4-(trifluoromethyl)phenyl)amino)-1,3,4-thiadiazol-2-yl)thio)acetamide] | 33 ± 4 µM | 167 ± 8 µM | 17.9 ± 4 µM | 12.4 ± 2 µM | IC50 ([3]; PBMC, MTT, 48 h of incubation, mean ± SD, three independent experiments): 141 ± 16 µM; times lower cytotoxicity on PBMC than imatinib ([3]; ratio of PBMC IC50 values, 48 h): ~ 5 times; apoptotic activity (HeLa cells): 96%; apoptotic and necrotic effects (HeLa cells): induced late apoptosis or necrosis; IC50 (ABL1): 7.4 µM; IC50 (LCK; [4]): 40.1 µM; inhibition of LCK (in words) (LCK; IC50 in the micromolar range): significantly inhibited; inhibition of SRC (in words) (SRC): inactive; IC50 (SRC; [4]): > 100 µM; IC50 (BRK): > 100 µM; inhibition of BRK (in words) (BRK): inactive; IC50 (BTK): 30.2 µM; inhibition of BTK (in words) (BTK; IC50 in the micromolar range): significantly inhibited; IC50 (CSK): 18.4 µM; inhibition of CSK (in words) (CSK; IC50 in the micromolar range): significantly inhibited; IC50 (FYN A): 70.8 µM; inhibition of FYN A (in words) (FYN A; IC50 in the micromolar range): significantly inhibited; IC50 (LYN B): > 100 µM; inhibition of LYN B (in words) (LYN B): inactive |
| 311.8 to 312.5 °C | O=C(CSc1nnc(Nc2ccc(C(F)(F)F)cc2)s1)Nc1nc2ccc([N+](=O)[O-])cc2s1 [Compound 10, N-(6-Nitrobenzothiazol-2-yl)-2-((5-((4-(trifluoromethyl)phenyl)amino)-1,3,4-thiadiazol-2-yl)thio)acetamide] | > 300 µM | > 300 µM | > 300 µM | 75.3 ± 9 µM | activity against the HeLa cell line (in words) [2]: no significant activity |
|  | O=C(CSc1nnc(Nc2ccc(C(F)(F)F)cc2)s1)Nc1nc2ccc(Cl)cc2s1 [Compound 6, N-(6-Chlorobenzothiazol-2-yl)-2-((5-((4-(trifluoromethyl)phenyl)amino)-1,3,4-thiadiazol-2-yl)thio)acetamide] | > 300 µM | 38.3 ± 2 µM | 54.4 ± 8 µM | 28.7 ± 10 µM |  |
|  | Cc1ccc2nc(NC(=O)CSc3nnc(Nc4ccc(C(F)(F)F)cc4)s3)sc2c1 [Compound 7, N-(6-Methylbenzothiazol-2-yl)-2-((5-((4-(trifluoromethyl)phenyl)amino)-1,3,4-thiadiazol-2-yl)thio)acetamide] | > 300 µM | 198 ± 11 µM | > 300 µM | 30.2 ± 4 µM |  |
|  | COc1ccc2nc(NC(=O)CSc3nnc(Nc4ccc(C(F)(F)F)cc4)s3)sc2c1 [Compound 8, N-(6-Methoxybenzothiazol-2-yl)-2-((5-((4-(trifluoromethyl)phenyl)amino)-1,3,4-thiadiazol-2-yl)thio)acetamide] | > 300 µM | > 300 µM | > 300 µM | 30.9 ± 4 µM |  |
| 309.9 to 310.8 °C | O=C(CSc1nnc(Nc2ccc(C(F)(F)F)cc2)s1)Nc1nc2ccc(F)cc2s1 [Compound 5, N-(6-Fluorobenzothiazol-2-yl)-2-((5-((4-(trifluoromethyl)phenyl)amino)-1,3,4-thiadiazol-2-yl)thio)acetamide] | > 300 µM | 78.5 ± 12 µM | 97.9 ± 10 µM | 17.3 ± 8 µM |  |
| 271.4 to 272.5 °C | O=C(CSc1nnc(Nc2ccc(C(F)(F)F)cc2)s1)Nc1nccs1 [Compound 1, N-(Thiazol-2-yl)-2-((5-((4-(trifluoromethyl)phenyl)amino)-1,3,4-thiadiazol-2-yl)thio)acetamide] | > 300 µM | > 300 µM | > 300 µM | 135 ± 12 µM | activity against the K562 cell line (in words) ([1]; 48 h): inactive; activity against the HeLa cell line (in words) [2]: no significant activity |
